Assay results reported in article PMC9409145, “(-)-Epicatechin Is a Biased Ligand of Apelin Receptor” (International Journal of Molecular Sciences, 2022).

Tests used:
[1] = target: T1, apelin receptor (mouse skeletal muscle) (Mus musculus, UniProt Q9WV08); assay: affinity chromatography on immobilised epicatechin, MS identification; format: binding; conditions: muscle homogenate, 4 °C overnight, PBS pH 7.4; acid elution (MES pH 4.5); immobilised ligand
T1 construct: gene Aplnr
T1 sequence (Q9WV08 1-377): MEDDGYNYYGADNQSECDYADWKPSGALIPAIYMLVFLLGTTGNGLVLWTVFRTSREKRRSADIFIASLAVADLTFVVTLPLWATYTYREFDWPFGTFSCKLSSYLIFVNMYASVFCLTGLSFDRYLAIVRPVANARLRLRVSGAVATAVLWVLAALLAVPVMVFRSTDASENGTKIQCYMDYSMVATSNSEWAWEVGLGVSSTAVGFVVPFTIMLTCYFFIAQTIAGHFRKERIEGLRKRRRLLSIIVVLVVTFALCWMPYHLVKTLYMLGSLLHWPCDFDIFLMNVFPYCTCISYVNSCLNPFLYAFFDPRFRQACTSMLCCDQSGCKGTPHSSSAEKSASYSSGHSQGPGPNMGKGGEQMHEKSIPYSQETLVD

[2] = target: T2, apelin receptor (APLNR; APJ), PathHunter eXpress (Homo sapiens, UniProt P35414); assay: beta-arrestin-2 recruitment, enzyme complementation chemiluminescence, specific binding with Hill slope fit; format: cell-based; conditions: agonist; apparent constant from functional response, not a radioligand; 1 h incubation; CHO-K1 cells; read-out: Kd
T2 construct: full-length receptor with C-terminal ProLink (beta-galactosidase fragment) tag, stably expressed in CHO-K1 with enzyme-acceptor-tagged beta-arrestin-2
T2 sequence (P35414 1-380): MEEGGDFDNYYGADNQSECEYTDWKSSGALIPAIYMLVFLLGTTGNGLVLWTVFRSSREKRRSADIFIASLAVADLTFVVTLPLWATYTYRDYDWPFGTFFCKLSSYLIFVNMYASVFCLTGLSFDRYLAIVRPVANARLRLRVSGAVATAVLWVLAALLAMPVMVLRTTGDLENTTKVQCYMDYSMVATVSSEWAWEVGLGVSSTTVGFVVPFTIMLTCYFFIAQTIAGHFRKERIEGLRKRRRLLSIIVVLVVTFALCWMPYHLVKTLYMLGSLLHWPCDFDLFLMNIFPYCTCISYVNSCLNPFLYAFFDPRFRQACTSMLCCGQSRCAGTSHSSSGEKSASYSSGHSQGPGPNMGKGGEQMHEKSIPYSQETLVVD
Text: beta-arrestin-2 recruitment, enzyme complementation chemiluminescence, specific binding with Hill slope fit on apelin receptor (APLNR; APJ), PathHunter eXpress

[3] = target: T2, apelin receptor (APLNR; APJ), PathHunter eXpress; assay: beta-arrestin-2 recruitment, enzyme complementation chemiluminescence; format: cell-based; conditions: antagonist; cells pre-incubated with ML221, then EC as agonist

EC50 [2] [pM]	Structure (SMILES)	affinity chromatography on immobilised epicatechin, MS identification [1]	beta-arrestin-2 recruitment, enzyme complementation chemiluminescence [3]
1.76	Oc1cc(O)c2c(c1)O[C@H](c1ccc(O)c(O)c1)[C@H](O)C2 [EC, (-)-epicatechin]	Five proteins were identified as receptors: apelin receptor	–
–	O=C(Oc1coc(CSc2ncccn2)cc1=O)c1ccc([N+](=O)[O-])cc1 [ML221, 5-[(4-Nitrobenzoyl)oxy]-2-[(2-pyrimidinylthio)methyl]-4H-pyran-4-one]	–	the interaction of the antagonist with the receptor and the blockage of the effect of EC
